Values quoted from earlier work, collected in US20080102106A1, “Wound Healing Composition Comprising Substances From Diptera Larvae” (ALPHA-BIOCARE GMBH, priority 2005, published 2008).

Conditions: many cases of use in humans, dermatological studies

SMILES	wound healing effect
NC(=O)NC1NC(=O)NC1=O (stereo not drawn) [allantoin]	do not have any wound healing effect
N [ammonium]	do not have any wound healing effect
NC(N)=O [urea]	do not have any wound healing effect
